Assay results published in patent US8604016B2, “Heterocyclic inhibitors of glutaminase” (Calithera Biosciences Inc., priority 2011, dated 2013).
Like-named read-outs stand apart in the source and are kept apart here. Blank lines part the entries; values can stand above or below the molecule they belong to.

Legend:
[1] = system: P493-6 (myc "on") cells; experiment: Cell Proliferation Assay (72 hrs, Cell Titer Glo or Viacount FACS); format: cell-based
Method: P493-6 (myc “on”) cells were maintained in growth media (RPMI-1640, 10% FBS, 2 mM glutamine, 100 units/ml Penicillin and 100 μg/ml streptomycin) at 37° C. with 5% CO2. For compound assay, P493-6 cells were plated in 96-well V-bottom plates on the day of compound addition in 50 μl of growth media at a cell density of 200,000 cells/ml (10,000 cells/well). Compounds were serially diluted in 100% DMSO at 200-times the final concentration. Compounds were diluted 100-fold into growth media and then 50 μl of this mixture was added to cell plates making the final concentration of DMSO 0.5%. Cells were incubated with compound for 72 hrs at 37° C. with 5% CO2 and analyzed for antiproliferative effects either by Cell Titer Glo (Promega) or FACS analysis using the Viacount (Millipore) kit on the Guava instrument.

[2] = system: HCT116 colon carcinoma xenograft; experiment: Xenograft Efficacy Studies (HCT116 colon carcinoma xenograft); format: in vivo, scid/bg mice; settings: intraperitoneal administration twice daily to mice, FIG. 1
Method: Certain compounds were assayed for in vivo efficacy in xenograft models as follows.
Female scid/bg mice, approximately 6 weeks of age, were implanted subcutaneously on the right flank with 5×10^6 HCT116 cells per mouse in a volume of 100 uL of sterile PBS. When tumors reached a volume of 50-100 mm^3, mice were randomized to groups of n=10 to receive either vehicle or test compound delivered twice daily by intraperitoneal injection. Tumors were measured three times per week using Vernier calipers and tumor volume calculated using the formula: Volume=(Length×Width^2/2), where length and width are the longest perpendicular sides of the tumor. Dosing continued twice daily until control tumors reached a size of 2000 mm^3. Statistical comparisons were made using a 2-way ANOVA with Bonferroni post-test.

[3] = molecular target: recombinant form of Glutaminase 1 (GAC) (Homo sapiens, UniProt O94925); experiment: Recombinant Enzyme Assay (GAC coupled to GDH, NADH absorbance, no preincubation); format: biochemical; settings: no preincubation; read-out: GAC Delta N2 IC50 no preinc
In short: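 GAC (4 nM) in Tris-HCl pH 8.0 with 150 mM K2HPO4, EDTA, BSA, DTT, plus 4 units/ml GDH and 4 mM ADP, without preincubation. Absorbance at 340 nm was read kinetically for 15 min at 20° C. Slopes (mAU/min) were compared with DMSO-only and control-compound wells on the same plate.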

[4] = system: Caco-2 cell monolayers; experiment: Caco-2 Permeability Assay (bidirectional); format: in vitro ADME
Text: (§1) Caco-2 cells are commonly used in a confluent monolayer on a cell culture insert filter. When cultured in this format and under specific conditions, the cells become differentiated and polarized such that their phenotype, morphologically and functionally resembles the enterocytes lining the small intestine. The cell monolayer provides a physical and biochemical barrier to the passage of small molecules, and is widely used across the pharmaceutical industry as an in vitro model of the human small intestinal mucosa to predict the absorption of orally administered drugs (Hidalgo et al., Gastroenterology, 1989; Artursson, J. Pharm. Sci., 1990). The correlation between the in vitro apparent permeability (P ? app) across Caco-2 monolayers and the in vivo absorption is well established (Artursson et al., Biochem. Biophys. Res. Comm., 1991).
(§2) The present assay was used to determine the bidirectional permeability of the compounds of the invention through Caco-2 cell monolayers. Caco-2 cells were grown in confluent monolayers where the media of both the apical (A) and basolateral (B) sides were at pH 7.4. Compounds were dosed at 1 μM in the presence of 200 μM Lucifer Yellow, on the apical side (A→B) or the basolateral side (B→A) for assessment, in duplicate.
(§3) The absorption potential of compounds were classified as either Low (P-app <1×10^−6 cm/s) or High (P-app >1×10^−6 cm/s).

[5] = Caco-2 Permeability Assay (bidirectional); format: in vitro ADME; settings: human
Text: as §1, §2, §3

[6] = read-out: Cell prolif P493 72h IC50, P493-6 cells, 72 h

SMILES: O=C(Nc1nnc(CCCCc2nnc(NC(=O)C3COc4ccccc43)s2)s1)C1COc2ccccc21 (centres unmarked) [Compound 135]
- IC50 [1, 6]: 490 nM

SMILES: O=C(CCN1CCOCC1)OCC(C(=O)Nc1nnc(CCCCc2nnc(NC(=O)C(COC(=O)CCN3CCOCC3)c3ccccc3)s2)s1)c1ccccc1 (centres unmarked) [Compound 188, {[5,5′-(butane-1,4-diyl)-bis(1,3,4-thiadiazole-5,2-diyl)]-bis(azanediyl)}-bis(3-oxo-2-phenylpropane-3,1-diyl)-bis(3-morpholinopropanoate)]
- tumor size [2]: reduced tumor size
- IC50 [3]: 2000 nM

SMILES: O=C(Cc1cccc(CN2CCNCC2)c1)Nc1nnc(CCCCc2nnc(NC(=O)Cc3cccc(CN4CCNCC4)c3)s2)s1 [Compound 276]
- IC50 [1, 6]: 56000 nM

SMILES: Nc1nnc(CCCCc2ccc(NC(=O)Cc3cccc(OC(F)(F)F)c3)nn2)s1 [Compound 657, N-(6-(4-(5-amino-1,3,4-thiadiazol-2-yl)butyl)pyridazin-3-yl)-2-(3-(trifluoromethoxy)phenyl)acetamide]
- IC50 ([1]; P493-6, 72 h, P493-6 cells, 72 h, read-out: Cell prolif P493 72h): 1500 nM

The next lines start with results.

- IC50 [3]: > 20000 nM
SMILES: CC(C)(C)OC(=O)Nc1ccc(CC(=O)Cc2nnc(CCCCc3nnc(NC(=O)Cc4ccc(NC(=O)OC(C)(C)C)cc4)s3)s2)cc1 [Compound 192]
- IC50 ([1]; P493-6, 72 h, read-out: Cell prolif P493 72h IC50, P493-6 cells, 72 h): 30 nM

- recovery at 120 min, 1 μM ([5]; Caco-2, pH 7.4, Direction A→B, 1 μM, 120 minutes, pH 7.4): 70%
- recovery at 120 min, 1 μM ([5]; Caco-2, pH 7.4, Direction B→A, 1 μM, 120 minutes, pH 7.4): 72%
- Papp A→B at 120 min, 1 μM ([5]; Caco-2, Direction A→B, 1 μM, 120 minutes, pH 7.4, unit not given (thresholds in 10^−6 cm/s)): 9.64 ×10⁻⁶ cm/s
- Papp B→A at 120 min, 1 μM ([5]; Caco-2, Direction B→A, 1 μM, 120 minutes, pH 7.4, unit not given (thresholds in 10^−6 cm/s)): 59.6 ×10⁻⁶ cm/s
- permeability class (Low/High absorption potential) at 120 min, 1 µM ([5]; Caco-2, absorption potential, read-out: Permeability Classification): > 1 ×10⁻⁶ cm/s
SMILES: O=C(Cc1cccc(OC(F)(F)F)c1)Nc1ccc(CCCCc2nnc(NC(=O)Cc3ccccn3)s2)nn1 [Compound 670]
- Significant Efflux [4]: Yes (efflux ratios being significant when greater than or equal to 3 when the Papp (B→A) was greater than or equal to 1×10^−6 cm/s)
- IC50 ([1]; P493-6 cells, 72 h, read-out: Cell prolif P493 72h): 30 nM
